Measurements: article PMC10122656, “Siglec-6 mediates the uptake of extracellular vesicles through a noncanonical glycolipid binding pocket” (Nature Communications, 2023)
Where “and” joins values, the source holds several entries; their conditions need not be identical. Equal entries are not always repeated.

Assays:
memory B-cells = assay: Liposome binding to peripheral blood memory B-cells by flow cytometry; assay type: cell-based, human
Protocol: 200,000 cells/well were plated into a 96-well U-bottom microplate and centrifuged at 300 × g for 5 min. The cells were then resuspended in 50 µL of 50 µM liposome/50 µg/mL (protein concentration) of EV solution in DMEM F12 5% FBS and incubated at 37 °C for 30 min. Excess liposomes were then removed via centrifuged at 300 × g for 5 min followed by washing the cells with FACS solution. The cells were then resuspended in (1:250 V/V) anti-Siglec-flow buffer (1% V/V FBS, 500 µM, EDTA Hank’s Balanced Salt Solution pH 7.4), solution and left to rest on ice for 30 min. The cells were then centrifuged again at 300 × g for 5 min and the cells were resuspended in FACS buffer solution and were then ready for analysis by flow cytometry. Information regarding antibody clone, catalog number supplier, label isotype, and dilution can be found in Supplementary Table 6. The Siglec-positive cells were gated on for liposome-binding analysis (Supplementary Fig. 1b).
Flow cytometry measurements were collected on a 5-laser Fortessa X-20 (BD Bioscience). All the resulting data were analyzed using FlowJo (10.5.3) software (BD Biosciences).

[1] = biological target: T1, CHO cells expressing Siglec-1 (Homo sapiens, UniProt Q9BZZ2); assay: Liquid glycan array (LiGA) binding read out by next-generation sequencing; assay type: cell-based; details: for LiGA signal at 0.034: Figure S9, 0.034; for LiGA signal at 0.041: Figure S9, 0.041; for LiGA signal at 0.048: Figure S9, first column 0.048; for LiGA: ganglioside oligosaccharide on phage binding to Siglec-1 CHO cells (Fig. 1e): replicates; for density at which LiGA binding to Siglec-1 CHO cells was maximal: oligosaccharide on phage; for LiGA signal at 0.019: Figure S9, 0.019; for LiGA signal at 0.06: Figure S9, 0.06
T1 construct: expressed in transfected cells
T1 sequence (Q9BZZ2 20-1709): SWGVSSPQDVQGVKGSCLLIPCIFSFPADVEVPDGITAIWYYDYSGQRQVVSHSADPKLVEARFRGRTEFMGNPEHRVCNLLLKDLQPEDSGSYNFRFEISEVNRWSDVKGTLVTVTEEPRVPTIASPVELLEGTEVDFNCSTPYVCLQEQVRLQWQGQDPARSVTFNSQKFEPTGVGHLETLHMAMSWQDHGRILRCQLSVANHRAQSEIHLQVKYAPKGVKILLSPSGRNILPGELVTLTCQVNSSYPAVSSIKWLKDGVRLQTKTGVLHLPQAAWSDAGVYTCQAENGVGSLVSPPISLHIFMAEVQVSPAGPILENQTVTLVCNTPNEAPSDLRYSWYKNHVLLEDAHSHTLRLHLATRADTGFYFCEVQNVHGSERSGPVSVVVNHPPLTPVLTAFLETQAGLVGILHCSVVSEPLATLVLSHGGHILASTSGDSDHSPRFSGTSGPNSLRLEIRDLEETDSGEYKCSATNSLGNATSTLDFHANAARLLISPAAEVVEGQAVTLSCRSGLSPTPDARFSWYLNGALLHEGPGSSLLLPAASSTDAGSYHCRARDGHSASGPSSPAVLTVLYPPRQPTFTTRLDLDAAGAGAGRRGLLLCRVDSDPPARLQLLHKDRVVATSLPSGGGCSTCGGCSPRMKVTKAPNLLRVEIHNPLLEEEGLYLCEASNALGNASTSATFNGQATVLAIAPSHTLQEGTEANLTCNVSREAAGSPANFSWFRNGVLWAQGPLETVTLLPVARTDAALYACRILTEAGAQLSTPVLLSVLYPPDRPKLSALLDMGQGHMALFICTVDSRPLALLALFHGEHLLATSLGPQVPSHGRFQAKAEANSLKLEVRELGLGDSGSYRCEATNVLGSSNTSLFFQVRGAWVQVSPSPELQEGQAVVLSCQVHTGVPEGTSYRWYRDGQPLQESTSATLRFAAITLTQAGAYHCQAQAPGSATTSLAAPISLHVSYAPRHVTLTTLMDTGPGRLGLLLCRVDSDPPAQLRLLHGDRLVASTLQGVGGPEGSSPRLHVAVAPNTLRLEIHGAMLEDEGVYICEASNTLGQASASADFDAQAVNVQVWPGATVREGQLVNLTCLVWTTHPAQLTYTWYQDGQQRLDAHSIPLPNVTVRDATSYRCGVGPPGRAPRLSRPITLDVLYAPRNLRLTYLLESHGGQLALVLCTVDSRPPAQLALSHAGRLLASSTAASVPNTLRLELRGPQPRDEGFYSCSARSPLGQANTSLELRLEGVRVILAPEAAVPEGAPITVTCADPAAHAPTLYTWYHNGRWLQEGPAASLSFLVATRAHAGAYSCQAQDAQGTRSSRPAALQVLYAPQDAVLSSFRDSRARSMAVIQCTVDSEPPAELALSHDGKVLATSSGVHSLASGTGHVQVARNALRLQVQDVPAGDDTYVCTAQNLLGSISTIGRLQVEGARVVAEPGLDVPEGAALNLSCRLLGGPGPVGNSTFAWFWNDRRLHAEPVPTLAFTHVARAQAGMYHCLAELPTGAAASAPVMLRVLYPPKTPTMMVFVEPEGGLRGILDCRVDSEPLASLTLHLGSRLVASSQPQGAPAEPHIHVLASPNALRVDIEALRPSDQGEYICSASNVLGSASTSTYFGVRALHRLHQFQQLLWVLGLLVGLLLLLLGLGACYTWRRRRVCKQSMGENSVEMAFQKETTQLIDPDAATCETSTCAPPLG
Protocol: (§1) Solution of five SDB phage clones (10^12−10^13 PFU/mL in PBS) was combined in equal amounts (50 µL) to create a multiplexed silent barcode (MSDB). Twenty-four such MSDB were created and combined DBCO-NHS (50 mM in DMF) to afford a final concentration ranging from 0.25 to 2 mM. The reaction was incubated for 45 min at room temperature. The conjugates were purified by Zeba™ Spin Desalting column (7 kDa MWCO, 0.5 mL, Thermo Fisher) and pVIII modification rate was confirmed by MAL/DI using a previously reported protocol. Typically, 1 mM DBCO-NHS yields 25% of pVIII modification after 45 min incubation. Six MSDB were combined and a solution of azido-glycans (10 mM stock in Nuclease Free H2O) was added to the solution to afford a 2 mM concentration of glycan-azide and the solutions were further incubated overnight at 4 °C. The glycan conjugation was confirmed using MALDI-TOF. The conjugates were purified by Zeba column and supplemented with glycerol and stored as 50% glycerol stock at −20 °C. LiGA mixture was prepared by combining these solutions.
as §1, with “The solution of five” for “Solution of five”, “Fisher) and the pVIII modification” for “Fisher) and pVIII modification”
Confluent CHO cells expressing Siglec-1 or UT CHO cells were detached using PBS plus 5 mM EDTA and washed with PBS (2 × 5 mL). Suspension of at 2 × 10^6 cells in HEPES-1, % BSA (20 mM HEPES, 150 mM NaCl, 2 mM CaCl2, pH 7.4, 1% BSA) in a round bottom 3 mL tube (Corning, #352054) was combined with LiGA (10^8 PFU) and incubated for 1 h at 4 °C. The cells were then washed with HEPES-0.1% BSA in (2 × 3 mL) and HEPES buffer (1 × 1 mL). The washed cell pellet was resuspended in 30 µL nuclease-free H2O. The solution was incubated at 90 °C for 15 min, centrifuged at 21,000 × g for 10 min, and 25 µL of the supernatant was used for PCR and sequencing.

[2] = Ganglioside content quantification in liposomes by ESI-MS; assay type: physicochemical; details: peer review file; Supplementary Table 1
Protocol: The average ganglioside content in a given liposome sample was measured by electrospray ionization mass spectrometry (ESI-MS) using an internal standard (IS)[70]. Briefly, the liposome sample was first disassembled in a methanol solution of 0.15% formic acid, and a known amount of IS was added. The solution was then analyzed by ESI-MS. The total ion abundance (Ab) ratio of the ganglioside (GSL) to the IS measured by ESI-MS is related to the corresponding solution concentration ratio by Eq. (1):1 R=AbGSL/AbIS=GSL/IS and thus the ganglioside concentration can be obtained from linear regression. The corrected ganglioside percentage (GSL%corr) and the ganglioside incorporation in the liposome can be found from Eqs. (2) and (3), respectively, where [GSL]nominal is the nominal concentration of the ganglioside used for liposome preparation:2 GSL%corr=[GSL]/[TotalLipid] 3 Incorporation=[GSL]/GSLnominal
The corresponding deuterium labeled gangliosides, N-ω-CD3-octadecanoyl monosialoganglioside GM2 (GM2-d3), and N-ω-CD3-octadecanoyl monosialoganglioside GM3 (GM3-d3), purchased form Matreya LLC (State College, PA), were used as IS for GM2 and GM3 content quantification, respectively. All these measurements were carried out in negative ion mode using a Q Exactive Hybrid Quadrupole-Orbitrap mass spectrometer coupled with the Nanospray Flex Ion Source (Thermo Fisher Scientific, Bremen, Germany). […]

[3] = oligosaccharide density 0.008 Ligand/nm2
[4] = oligosaccharide density 0.019 Ligand/nm2
[5] = oligosaccharide density 0.034 Ligand/nm2
[6] = oligosaccharide density 0.041 Ligand/nm2
[7] = oligosaccharide density 0.048 Ligand/nm2
[8] = oligosaccharide density 0.06 Ligand/nm2

| Compound | liposome binding, fluorescence signal (replicates) (memory B-cells; sheet Figure S29, 5% GM3-DAG liposomes, cells not given) | 5 nGLL binding to memory B-cells after pre-treatment with anti-Siglec-6 antibody (memory B-cells) | 5 nGLL binding to memory B-cells compared to naïve B-cells (memory B-cells; four healthy donors) | LiGA signal at 0.034 [1] | LiGA signal at 0.041 [1] | LiGA signal at 0.048 [1] | LiGA signal at 0.066 ([1]; Figure S9, first column 0.066) | LiGA: ganglioside oligosaccharide on phage binding to Siglec-1 CHO cells (Fig. 1e) [1, 3] | LiGA: ganglioside oligosaccharide on phage binding to Siglec-1 CHO cells (Fig. 1e) [1, 4] | LiGA: ganglioside oligosaccharide on phage binding to Siglec-1 CHO cells (Fig. 1e) [1, 5] | LiGA: ganglioside oligosaccharide on phage binding to Siglec-1 CHO cells (Fig. 1e) [1, 6] | LiGA: ganglioside oligosaccharide on phage binding to Siglec-1 CHO cells (Fig. 1e) [1, 7] | LiGA: ganglioside oligosaccharide on phage binding to Siglec-1 CHO cells (Fig. 1e) ([1]; oligosaccharide density 0.066 Ligand/nm2) | density at which LiGA binding to Siglec-1 CHO cells was maximal [1] | LiGA signal at 0.019 [1] | LiGA signal at 0.06 [1] | LiGA: ganglioside oligosaccharide on phage binding to Siglec-1 CHO cells (Fig. 1e) [1, 8] | incorporation of ganglioside into liposomes [2] |
| --- | --- | --- | --- | --- | --- | --- | --- | --- | --- | --- | --- | --- | --- | --- | --- | --- | --- | --- |
| CCCCCCCCCCCCCCCCOCC(COCCCCCCCCCCCCCCCC)OCc1cn(CCO[C@@H]2O[C@H](CO)[C@@H](O[C@@H]3O[C@H](CO)[C@H](O)[C@H](O[C@]4(C(=O)O)C[C@H](O)[C@@H](NC(C)=O)[C@H]([C@H](O)[C@H](O)CO)O4)[C@H]3O)[C@H](O)[C@H]2O)nn1 [GM3-DAG] | 361 and 385 and 363 and 344 | – | – | – | – | – | – | – | – | – | – | – | – | – | – | – | – | – |
| CCCCCCCCCCCCCCCCOCC(COCCCCCCCCCCCCCCCC)OCc1cn(CCO[C@@H]2O[C@H](CO)[C@@H](O[C@@H]3O[C@H](CO)[C@H](O)[C@H](O[C@]4(C(=O)O)C[C@H](O)[C@@H](NC(C)=O)[C@H]([C@H](O)[C@H](O)CO)O4)[C@H]3O)[C@H](O)[C@H]2O)nn1 [nGL 5] | – | Blocking of 5 nGLLs to human memory B-cells was achieved | significant binding | – | – | – | – | – | – | – | – | – | – | – | – | – | – | – |
| GD1a | – | – | – | 3.442 and 2.502 and 3.222 and 3.062 and 2.777 | 1.814 and 2.04 and 1.9 and 2.274 and 1.639 | 1.684 and 1.501 and 1.621 and 1.606 | 2.309 and 1.395 and 2.352 and 2.266 | 0.05 (4×) and 0.04 | 0.2 and 0.13 and 0.03 and 0.15 | 0.41 and 0.39 and 0.36 and 0.44 and 0.32 | 0.24 and 0.29 and 0.21 and 0.23 and 0.26 | 0.19 and 0.21 (2×) and 0.22 and 0 | 0.18 and 0.3 (2×) and 0.29 | ~ 26 nm^2/ligand | – | – | – | – |
| GM1 | – | – | – | 0.857 and 0.909 and 0.746 and 0.756 and 0.912 | – | 0.51 and 0.478 and 0.553 and 0.673 | – | 0.12 and 0.09 (2×) and 0.04 | 0.08 (2×) and 0.1 (2×) | 0.11 and 0.12 (2×) and 0.1 (2×) | 0.07 (3×) and 0.08 | 0.07 (2×) and 0.06 and 0.09 | – | – | 0.643 and 0.783 and 0.76 and 0.6 | 1.503 and 0.848 and 1.103 and 0.902 and 1.094 | 0.19 and 0.11 and 0.14 (2×) and 0.12 | – |
| GM2 | – | – | – | – | – | 6.111 and 6.403 and 6.572 and 7.724 and 12.213 | – | 0.1 (2×) and 0.05 and 0.07 | 0.12 (3×) and 0.13 and 0.23 | 0.71 and 1.24 and 1.08 and 1.35 and 0.62 | – | 0.82 and 0.84 and 0.99 and 0.78 | – | ~ 26 nm^2/ligand | 0.917 and 0.919 and 0.922 and 1.035 and 1.785 | 5.095 and 7.961 and 4.56 and 5.475 | 1.02 and 0.58 and 0.7 and 0.65 | 98% |
| GM3 | – | – | – | 0.358 and 0.619 and 0.601 and 0.534 | 0.827 and 1.082 and 1.01 and 1.1 and 0.616 | 0.881 and 0.783 and 0.773 and 1.152 | – | 0.19 and 0.09 and 0.07 and 0.1 and 0.08 | 0.12 and 0.11 and 0.1 and 0.19 and 0.05 | 0.05 and 0.08 (2×) and 0.07 | 0.11 and 0.14 (2×) and 0.13 and 0.08 | 0.11 and 0.1 (2×) and 0.15 | – | – | – | – | 0.13 and 0.15 and 0.07 and 0.06 | 96% |
